Key:
spinal cord ischemia = assay: Acute spinal cord ischemia in the rabbit (aortic occlusion, neurologic function after reperfusion); assay type: in vivo, New Zealand white rabbits; details: 0.15 mg per kilogram subcutaneous, sixteen hours prior to 20 minutes aortic occlusion at 37° C., evaluated 24 hours after reperfusion, four animals
Description: New Zealand white rabbits were stress conditioned and subjected to spinal cord ischemia using methods similar to those previously described in Perdrizet et al., “Stress conditioning: A novel approach to organ preservation”, Current Surgery, 46(1): 23-26 (January-February 1989), the contents of which are incorporated herein by reference in their entirety. The rabbits were subjected to spinal cord ischemia by occlusion of the infrarenal-abdominal aorta as an ischemic insult to the spinal cord, for 20 minutes at 37° C. The occlusion was then removed and blood flow re-established to the infra-renal aorta. Neurological function of the lower extremities was evaluated 24 hours after reperfusion. Four animals were pretreated with a subcutaneous injection in the rump region of stannous chloride (SnCl2) in a saline diluent at a dose of 0.15 mg per kilogram (0.00066 millimoles per kilogram), sixteen hours prior to aortic occlusion.

warm renal ischemia = assay: Warm ischemic injury of the rat kidney (renal vascular resistance); assay type: in vivo, Male Sprague-Dawley rats; details: following 60 minutes of warm ischemic injury, recorded as mm mercury/ml fluid/gram of tissue, control approximately 60, uninjured 43-44
Procedure: Male Sprague-Dawley rats were stress conditioned and subjected to warm ischemic injury using methods similar to those previously described in Perdrizet et al., supra. The non-treated control animals underwent 60 minutes of occlusion of the renal artery at 35-37° C. as an ischemic insult. Following the ischemic injury, flow was reestablished in the kidney and vascular resistance of the kidney was measured. To measure renal vascular resistance, a syringe system was attached to the renal artery, to give a constant flow rate of approximately 0.5 cc/minute. Since there was a constant flow rate, it was possible to measure the pressure generated in the syringe. The higher the pressure, the greater the resistance. Renal vascular resistance was recorded as mm mercury/ml fluid/gram of tissue.

With `[Cl][Sn][Cl]` [SnCl2, stannous chloride] the “Neurological function of the lower extremities” value (spinal cord ischemia) was “all four animals pretreated with SnCl2 had normal neurologic function” and the Renal vascular resistance (warm renal ischemia) was 45 resistance units.
